According to patent US4056520A (Research Corporation, priority 1975, dated 1977):

Tested on: pituitary dwarf
Assay: Metabolic studies in a pituitary dwarf (human growth hormone-like activity)
Assay type: in vivo
Conditions: same pituitary dwarf
Procedure: There was also observed an increase in urinary calcium. […] This fraction in accordance with this invention evidencing clinical activity was administered by injection into the pituitary dwarf.
In the treatment of the pituitary dwarf mentioned hereinabove with the active A-II fraction, the treatment involved metabolic studies. The pituitary dwarf received 5 milligrams of the A-II fraction dissolved in water twice a day intramuscularly for five days. The active A-II fraction could just as well been given intravenously although one would predict that the effects would be more prolonged with intramuscular injection. It would appear unlikely that the A-II fraction, being a peptide, could efficiently be given orally since it would be digested in the gastrointestinal tract.

human growth hormone: human growth hormone given to the same pituitary dwarf for comparison
responses compared with the A-II fraction: qualitatively the same although the human growth hormone was more effective
